The source of these data is patent US7982043B2, “Protein tyrosine kinase enzyme inhibitors” (Wyeth LLC, priority 2003, dated 2011).

Holding throughout (assay type): cell-based
Test [1] relates to A431 cells. As to the kind of experiment: Cell proliferation assay (SRB), A431. Conditions: for IC50: Homo sapiens, A-431, 48 h, read-out: CELL IC50 A431.
Test [2] relates to SK-Br-3 cells. Briefly: Cell proliferation assay (SRB), SK-Br-3. As to conditions: for IC50: Homo sapiens, SK-BR-3, 48 h, read-out: CELL IC50 SKBr3.
Test [3] deals with SW620 cells. As to the kind of experiment: Cell proliferation assay (SRB), SW620. Conditions: for IC50: Homo sapiens, SW-620, 48 h, read-out: CELL IC50 SW620.
In test [4] the target is mouse fibroblast cell line transfected with the HER-2 oncogene (3T3/neu) (UniProt P04626, cells depend on it, species not given). Briefly: Cell proliferation assay (SRB), 3T3/neu. As to conditions: for GI50: read-out: CELL IC50 3T3/NEU (converted).
Test [5] relates to MDA-MB-435 cells. Briefly: Cell proliferation assay (SRB), MDA-MB-435. As to conditions: for IC50: Homo sapiens, MDA-MB-435, 48 h, read-out: CELL IC50 MDA-MB-435.

In brackets after ≈: the same amount, converted by molar mass. Read-outs that look alike come from different tables or passages of the source. Some results are limits rather than exact numbers.

As to `COc1cc2ncc(C#N)c(Nc3ccc(N(Cc4cccnc4)C(C)=O)c(Cl)c3)c2cc1[N+](=O)[O-]` [Example 48], the “CELL IC50 A431” value in test [1] (EGFR +++, Her-2 +, 2 days, SRB) turned out to be 1.6 mg/L. In test [2] (EGFR −, Her-2 +++, 2 days, SRB), the “CELL IC50 SKBr3” value stood at 0.68 mg/L. Also, the “CELL IC50 SW620” value in test [3] (EGFR −, Her-2 −, 2 days, SRB) stood at 2.57 mg/L. For the same compound, the “CELL IC50 3T3/NEU” value in test [4] (EGFR −, Her-2 +++, 2 days, SRB) stood at 1.79 mg/L. Also, the “CELL IC50 MDA-MB-435” value in test [5] (EGFR −, Her-2 −, 2 days, SRB) was 2.61 mg/L.
Turning to `CCOc1cc2ncc(C#N)c(Nc3ccc(Oc4ccncc4)c(Cl)c3)c2cc1[N+](=O)[O-]` [Example 54, 4-[3-chloro-4-(4-pyridinyloxy)anilino]-7-ethoxy-6-nitro-3-quinolinecarbonitrile], the IC50 (commonly the point on the concentration scale where inhibition reaches its midpoint) in test [1] (EGFR +++, Her-2 +, 2 days, SRB) is more than 5 mg/L; in test [2] (EGFR −, Her-2 +++, 2 days, SRB), more than 5 mg/L; in test [3] (EGFR −, Her-2 −, 2 days, SRB), more than 5 mg/L; in test [5] (EGFR −, Her-2 −, 2 days, SRB) it was 2.54 mg/L (≈ 5.5 µM). In test [4] (EGFR −, Her-2 +++, 2 days, SRB), the GI50 is more than 10.8 µM.
Consider `CCOc1cc2ncc(C#N)c(Nc3ccc(Sc4nc(-c5ccccc5)cs4)c(C(F)(F)F)c3)c2cc1[N+](=O)[O-]` [Example 67, 7-ethoxy-6-nitro-4-[4-[(4-phenyl-1,3-thiazol-2-yl)sulfanyl]-3-(trifluoromethyl)anilino]-3-quinolinecarbonitrile], for which the IC50 in test [1] (EGFR +++, Her-2 +, 2 days, SRB) was determined as 0.76 mg/L (≈ 1.28 µM); in test [2] (EGFR −, Her-2 +++, 2 days, SRB), 0.268 mg/L (≈ 0.451 µM); in test [3] (EGFR −, Her-2 −, 2 days, SRB), 0.4 mg/L (≈ 0.674 µM); in test [5] (EGFR −, Her-2 −, 2 days, SRB) it was 0.4 mg/L (≈ 0.674 µM). Besides, the GI50 in test [4] (EGFR −, Her-2 +++, 2 days, SRB) is 1.15 µM.
For the compound `CCOc1cc2ncc(C#N)c(Nc3ccc(Sc4nccc(C)n4)c(Cl)c3)c2cc1N` [Example 64, 6-amino-4-{3-chloro-4-[(4-methyl-2-pyrimidinyl)sulfanyl]anilino}-7-ethoxy-3-quinolinecarbonitrile], the IC50 is 1.53 mg/L (≈ 3.3 µM) in test [1] (EGFR +++, Her-2 +, 2 days, SRB); more than 5 mg/L in test [2] (EGFR −, Her-2 +++, 2 days, SRB); 2 mg/L (≈ 4.32 µM) in test [3] (EGFR −, Her-2 −, 2 days, SRB); 1.8 mg/L (≈ 3.89 µM) in test [5] (EGFR −, Her-2 −, 2 days, SRB). For the same compound, the GI50 in test [4] (EGFR −, Her-2 +++, 2 days, SRB) is 6.54 µM.
Take “4-{3-chloro-4-[(4-oxo-3,4-dihydro-2-quinazolinyl)sulfanyl]anilino}-7-methoxy-6-hydro-2-quinazolinyl)sulfanyl]anilino}-7-methoxy-6-nitro-3-quinolinecarbonitrile [Example 44]”: in test [1], the “CELL IC50 A431” value came out at 2.28 mg/L. In test [2], the “CELL IC50 SKBr3” value came to 4.54 mg/L. Besides, in test [3], the “CELL IC50 SW620” value was 1.96 mg/L. Moreover, the “CELL IC50 3T3/NEU” value in test [4] (mouse fibroblast cell line transfected with the her-2 oncogene (3t3/neu)) turned out to be 4.54 mg/L. Also, the “CELL IC50 MDA-MB-435” value in test [5] is more than 5 mg/L.
`CCOc1cc2ncc(C#N)c(Nc3ccc(Nc4nnc(C(F)(F)F)s4)c(Cl)c3)c2cc1[N+](=O)[O-]` [Example 52, 4-(3-chloro-4-{[5-(trifluoromethyl)-1,3,4-thiadiazol-2-yl]amino}anilino)-7-ethoxy-6-nitro-3-quinolinecarbonitrile]: the IC50 in test [1] (EGFR +++, Her-2 +, 2 days, SRB) is 1.79 mg/L (≈ 3.34 µM); in test [2] (EGFR −, Her-2 +++, 2 days, SRB) it was 1.22 mg/L (≈ 2.28 µM); in test [3] (EGFR −, Her-2 −, 2 days, SRB), 2.54 mg/L (≈ 4.74 µM); in test [5] (EGFR −, Her-2 −, 2 days, SRB), 1.84 mg/L (≈ 3.43 µM). Further, the GI50 in test [4] (EGFR −, Her-2 +++, 2 days, SRB) was 3.53 µM.
For `CCOc1cc2ncc(C#N)c(Nc3ccc(Oc4ccncc4)c(Cl)c3)c2cc1N` [Example 55, 6-amino-4-[3-chloro-4-(4-pyridinyloxy)anilino]-7-ethoxy-3-quinolinecarbonitrile], the IC50 in test [1] (EGFR +++, Her-2 +, 2 days, SRB) was more than 5 mg/L; in test [2] (EGFR −, Her-2 +++, 2 days, SRB) it was more than 5 mg/L; in test [3] (EGFR −, Her-2 −, 2 days, SRB), more than 5 mg/L; in test [5] (EGFR −, Her-2 −, 2 days, SRB), 1.61 mg/L (≈ 3.73 µM). For the same compound, in test [4] (EGFR −, Her-2 +++, 2 days, SRB), the GI50 was more than 11.6 µM.
`CCOc1cc2ncc(C#N)c(Nc3ccc4c(c3)S(=O)(=O)C=C4)c2cc1OCC` [Example 30, 4-(1,1-Dioxo-1H-1-benzo[b]thiophen-6-ylamino)-6,7-diethoxy-q uinoline-3-carbonitrile]: in test [1] (EGFR +++, Her-2 +, 2 days, SRB), the “CELL IC50 A431” value is 0.257 mg/L. The “CELL IC50 SKBr3” value in test [2] (EGFR −, Her-2 +++, 2 days, SRB) is 0.336 mg/L. Moreover, the “CELL IC50 SW620” value in test [3] (EGFR −, Her-2 −, 2 days, SRB) was determined as 0.146 mg/L. In test [4] (EGFR −, Her-2 +++, 2 days, SRB), the “CELL IC50 3T3/NEU” value was determined as 0.251 mg/L. The “CELL IC50 MDA-MB-435” value in test [5] (EGFR −, Her-2 −, 2 days, SRB) was determined as 0.00328 mg/L.
Consider `COc1cc2ncc(C#N)c(Nc3ccc(-n4ccnc4)c(Cl)c3)c2cc1N` [Example 42], for which the “CELL IC50 A431” value in test [1] (EGFR +++, Her-2 +, 2 days, SRB) came out at 1.63 mg/L. In addition, in test [2] (EGFR −, Her-2 +++, 2 days, SRB), the “CELL IC50 SKBr3” value is 1.73 mg/L. In addition, the “CELL IC50 SW620” value in test [3] (EGFR −, Her-2 −, 2 days, SRB) is 5.99 mg/L. Besides, the “CELL IC50 3T3/NEU” value in test [4] (EGFR −, Her-2 +++, 2 days, SRB) turned out to be 0.53 mg/L. Also, in test [5] (EGFR −, Her-2 −, 2 days, SRB), the “CELL IC50 MDA-MB-435” value was found to be 1.27 mg/L.
Consider `COc1cc2ncc(C#N)c(Nc3ccc(Sc4nccs4)c(Cl)c3)c2cc1[N+](=O)[O-]` [Example 38, 4-{[3-chloro-4-(1,3-thiazol-2-ylsulfanyl)phenyl]amino}-7-methoxy-6-nitro-3-quinolinecarbonitrile], for which the IC50 stood at 0.148 mg/L (≈ 0.315 µM) in test [1] (EGFR +++, Her-2 +, 2 days, SRB); 0.124 mg/L (≈ 0.264 µM) in test [2] (EGFR −, Her-2 +++, 2 days, SRB); 0.15 mg/L (≈ 0.319 µM) in test [3] (EGFR −, Her-2 −, 2 days, SRB); 0.35 mg/L (≈ 0.745 µM) in test [5] (EGFR −, Her-2 −, 2 days, SRB). Moreover, in test [4] (EGFR −, Her-2 +++, 2 days, SRB), the GI50 was 0.558 µM.
In the same order, the values of `COc1cc2ncc(C#N)c(Nc3ccc(Sc4ncc(-c5ccccc5)s4)c(Cl)c3)c2cc1NC(=O)/C=C/CN(C)C` [Example 70, (E)-N-(4-{3-chloro-4-[(5-phenyl-1,3-thiazol-2-yl)sulfanyl]anilino}-3-cyano-7-methoxy-6-quinolinyl)-4-(dimethylamino)-2-butenamide] are 0.22 mg/L (≈ 0.351 µM), 0.01 mg/L (≈ 0.0159 µM), 0.5 mg/L (≈ 0.797 µM), 0.08 mg/L (≈ 0.128 µM) and 0.191 µM.
